Experimental data as given in EP0983275B1, “NOVEL TRIPTOLIDE DERIVATIVES USEFUL IN THE TREATMENT OF AUTOIMMUNE DISEASES” (priority 1997, dated 1998).
Values after ≈ are worked out from the molar mass of the structure shown.

Assays:
IL-2 production = assay: Interleukin-2 assay (IL-2 production by ELISA after PHA/TPA stimulation); assay type: cell-based; details: Jurkat E6-1 cells or human lymphocytes stimulated with PHA 10 µg/mL and 10^-8 M TPA; 16-24 hours
Method: (§1) Jurkat E6-1 cell line (ATCC), a human leukemic T cell line or lymphocytes prepared from fresh human blood, are grown in complete culture medium consisting of RPMI-1640 (Mediatech) supplemented with 10% v/v fetal bovine serum (HyClone, Logen, Vermont), penicillin (100 units/mL), streptomycin ([…]), and 2mM L-glutamine (GIBCO, Grand Island, New York). The cells are grown to a concentration of between 1.2 to 1.8 X 10^6 cells/mL before use. The cells are then centrifuged at low speed and resuspended to a concentration of 1.25 X 10^6 cells/mL in fresh medium.
(§2) The compounds to be tested are dissolved in DMSO, and water is added to make a 50% DMSO/water solution. The compounds are then diluted in sterile water such that the DMSO concentrations are less then 0.05%. The cells at a concentration of 1.25 X 10^6 cells/mL are stimulated with phytohemagglutinin 10 µg/mL (PHA) and 10^-8 M phorbol ester (12-O-tetradecanoylphorbol 13-acetate: TPA), (Sigma, St. Louis, Missouri). The compounds are then added and the cells are plated in flat-bottom tissue culture plates (Falcon, Lincoln Park, New Jersey), with 250,000 cells/well. Plates are then incubated at 37°C in a 5% CO2 atmosphere.
(§3) After incubation (16-24 hours), the cells are assayed for IL-2 production and cell viability (MTT). IL-2 production is assayed utilizing a solid phase ELISA immunoassay, sold in kit form by R&D Systems, Inc., Minneapolis, Minnesota.

Jurkat E6-1 cell line = assay: Cell viability (MTT mitochondrial enzyme assay); assay type: cell-based, human; details: cells of the IL-2 assay after removal of supernatant, MTT 4 hours at 37°C
Method: as §1, §2, §3
Cell viability is measured by the use of a mitochondrial enzyme assay. After removal of the supernatant for the IL-2 assay, Cell Titer 96 (a commercial solution of MTT obtained from Promega, Madison, Wisconsin), is added to the plates and incubated for 4 hours at 37°C. A solubilization solution is then added and incubated overnight. The plates are then read on an ELISA plate reader at a wavelength of 570 nm. Table II presents the results for the Interleukin-2 assay, the cell viability assay and the ratio of cell viability/IL-2 inhibition.

[1] = test system: adjuvant-induced arthritis; assay: Anti-inflammatory activity in the rat model of adjuvant-induced arthritis; assay type: in vivo, Male Wistar-Lewis rats; details: 12 consecutive days
Method: Following generally the procedure of Pearson and Wood, Arth. Rheum., 2, 44 (1959), the anti-inflammatory activity of the following compounds was determined in a rat model of adjuvant-induced arthritis. Male Wistar-Lewis rats (Mollegaard, Breeding Centre Ltd, BIBY, DK 4623 LI, SKENSVED, P.P. Box 28, DK) with a body weight between 160 g and 200 g are used. Freund's adjuvant (0.1 mL, 6 mg Mycobacterium smegmatis suspension per mL in heavy white paraffin oil, Merck/Darmstadt) was injected into the base of the tail. […] The animals received standardized food Altromin-R (Altrogge, Lage) and had free access to water. The compounds were administered i.p. (a suspension in carboxymethyl cellulose solution in an injection volume of 0.5 mL/100 g body weight) on 12 consecutive days, starting with the day of the adjuvant injection. On day 1 and day 18 of the study, the volume of both hind paws and the body weight were recorded, and in addition on day 18 the arthritis index.

[2] = Body weight change (weight gain) in the rat model of adjuvant-induced arthritis; assay type: in vivo, Male Wistar-Lewis rats; details: 10 mg/kg/day i.p.; weight gain between day 1 and day 21
Method: Following generally the procedure of Pearson and Wood, Arth. Rheum., 2, 44 (1959), the anti-inflammatory activity of the following compounds was determined in a rat model of adjuvant-induced arthritis. Male Wistar-Lewis rats (Mollegaard, Breeding Centre Ltd, BIBY, DK 4623 LI, SKENSVED, P.P. Box 28, DK) with a body weight between 160 g and 200 g are used. Freund's adjuvant (0.1 mL, 6 mg Mycobacterium smegmatis suspension per mL in heavy white paraffin oil, Merck/Darmstadt) was injected into the base of the tail. Between day 10 and day 14 of the test, immunopathological processes let to chronic inflammation, especially in the form of arthritic and periarthritic symptoms in all parts of the body. The animals received standardized food Altromin-R (Altrogge, Lage) and had free access to water. The compounds were administered i.p. (a suspension in carboxymethyl cellulose solution in an injection volume of 0.5 mL/100 g body weight) on 12 consecutive days, starting with the day of the adjuvant injection. On day 1 and day 18 of the study, the volume of both hind paws and the body weight were recorded, and in addition on day 18 the arthritis index. Cyclosporin A and Prednisolone were used as standard compounds. In addition, table IV presents the percent change in body weight (weight gain) between day 1 and day 21 of the above test.

With CC(C)[C@]12O[C@H]1[C@@H]1O[C@]13[C@]1(O[C@H]1C[C@H]1C4=C(CC[C@@]13C)C(=O)OC4)[C@@H]2O [Triptolide] the IC50 (IL-2 production) was 1 to 3 ng/mL (≈ 0.00277 to 0.00832 µM), the IC50 (Jurkat E6-1 cell line; Homo sapiens, Jurkat E6.1) was 5 ng/mL (≈ 0.0139 µM) and the “% Inhibition” value ([1]; 0.2 mg/kg/day i.p.) was 70%. The “% Inhibition” value ([1]; 0.4 mg/kg/day i.p.) was 85% and the “% Inhibition” value ([1]; 0.8 mg/kg/day i.p.) was 76%.

In the case of CC(C)C12OC1C1OC13C1(C)CCC4=C(COC4=O)C1CCC3(O)C2O (stereo not drawn) [Example 1, [5aR-(5aα,6α,6aα,7aα,7bβ,8aS*,8bα)]-3,3b,4,5,5a,6,6a,7a,7b,8b,9,10-dodecahydro-5a,6-dihydroxy-8b-methyl-6a-(1-methylethyl)-1H-bisoxireno[4b,5:6,7]phenanthro[1,2-c]furan-1-one], the IC50/IL-2 (IL-2 production) was 36 ng/mL (≈ 0.0993 µM), the IC50/MTT (Jurkat E6-1 cell line) was 300 to 500 ng/mL and the “% Inhibition” value ([1]; 10 mg/kg/day i.p.) was 90%. For the same compound, the “% Change in Body Weight” value [2] was 29.9%.

Work on “[1S-(1α,2β,3α,3aβ,4aR*,4bα,11aα)]-3-chloro-1,2,3,3a,4b,5,6,9,9b,10,11,11a-dodecahydro-1,2,11a-trihydroxy-4b-methyl-2-(1-methylethyl)-7H-oxireno[4b,5]phenanthro[1,2-c]furan-7-one [Example 2]” yielded an IC50/IL-2 (IL-2 production) of 60 ng/mL and an IC50/MTT (Jurkat E6-1 cell line) of 550 ng/mL.

In the case of C[C@]12C=CC(=O)C=C1CC[C@@H]1[C@@H]2[C@@H](O)C[C@@]2(C)[C@H]1CC[C@]2(O)C(=O)CO [Prednisolone], the “% Inhibition” value ([1]; 15 mg/kg/day i.p.) was 100%.
